These are literature values, as cited in patent US20070009589A1, “EXTENDED RELEASE COMPOSITIONS” (priority 2005, published 2007).

For data set [1] the following is noted: in water.

Take `COCCc1ccc(OCC(O)CNC(C)C)cc1` (racemic) [Metoprolol succinate, (±)-1-(isopropylamino)-3-[p-(2-methoxyethyl)phenoxy]-2-propanol succinate (2:1)]: the water solubility entry in data set [1] was “freely soluble in water”.
For the compound `COCCc1ccc(OCC(O)CNC(C)C)cc1` (stereo not drawn) [Metoprolol], the “Log P” value is recorded as 2.48. Also, the water solubility entry in data set [1] is given as “low water solubility”.
